Laboratory results taken from patent publication US20220282657A1 (priority 2016, published 2022).

Test system: spleen cells
Design: species or system CD-1 mice
Conditions: mouse, in vivo

In the case of QS21, the “cell-mediated immune response (cytokine profile), in words” value is reported as “strong and balanced Th1 plus Th2 cytokine profile”.
